Laboratory results: patent US20020055639A1, “Pyrazole derivatives as herbicides” (priority 1997, published 2002)

tested on: Avena; test: Pre-emergence herbicidal action (Example B1); type: in vivo; design: key: 1=total damage; 9=no action; Ratings of from 1 to 4 (especially from 1 to 3) indicate good to very good herbicidal action; settings: 2000 g a.i./ha, sprayed immediately after sowing, evaluated after 3 weeks, scale of nine ratings
Experimental: (§1) Monocotyledonous and dicotyledonous test plants are sown in standard soil in plastics pots. Immediately after sowing, the test compounds, each in the form of an aqueous suspension or emulsion prepared from a 25% emulsifiable concentrate (Example F1, c) in WO 97/34485, pages 9 and 10), are applied by spraying at a rate of application of 2000 g of active ingredient/ha (500 liters water/ha). The test plants are then grown in a greenhouse under optimum conditions. After 3 weeks' test duration, the test is evaluated in accordance with a scale of nine ratings (1=total damage, 9=no action). Ratings of from 1 to 4 (especially from 1 to 3) indicate good to very good herbicidal action.
(§2) Test plants: Avena, Setaria, Sinapis, Stellaria

SMILES	Pre-emergence action: Avena (rating)
CCn1c(-c2nn(C)c(OC(F)F)c2Cl)c(F)cc(Cl)c1=O [Example 1.004]	1
C#CCn1c(-c2nn(C)c(C(F)(F)F)c2Cl)c(F)cc(Cl)c1=O [Example 9.100]	1
CSCn1c(-c2nn(C)c(OC(F)F)c2Cl)c(F)cc(Cl)c1=O [Example 1.147]	1
Cn1nc(-c2c(F)cc(Cl)c(=O)n2CCc2ccccc2)c(Cl)c1OC(F)F [Example 1.105]	1
CCSCCn1c(-c2nn(C)c(OC(F)F)c2Cl)c(F)cc(Cl)c1=O [Example 1.156]	1
COn1c(-c2nn(C)c(OC(F)F)c2Cl)c(F)cc(Cl)c1=O [Example 1.400]	1

tested on: Setaria; test: Pre-emergence herbicidal action (Example B1); type: in vivo; design: key: 1=total damage; 9=no action; Ratings of from 1 to 4 (especially from 1 to 3) indicate good to very good herbicidal action; settings: 2000 g a.i./ha, sprayed immediately after sowing, evaluated after 3 weeks, scale of nine ratings
Experimental: as §1, §2

SMILES	Pre-emergence action: Setaria (rating)
CCn1c(-c2nn(C)c(OC(F)F)c2Cl)c(F)cc(Cl)c1=O [Example 1.004]	1
C#CCn1c(-c2nn(C)c(C(F)(F)F)c2Cl)c(F)cc(Cl)c1=O [Example 9.100]	1
CSCn1c(-c2nn(C)c(OC(F)F)c2Cl)c(F)cc(Cl)c1=O [Example 1.147]	1
Cn1nc(-c2c(F)cc(Cl)c(=O)n2CCc2ccccc2)c(Cl)c1OC(F)F [Example 1.105]	1
CCSCCn1c(-c2nn(C)c(OC(F)F)c2Cl)c(F)cc(Cl)c1=O [Example 1.156]	1
COn1c(-c2nn(C)c(OC(F)F)c2Cl)c(F)cc(Cl)c1=O [Example 1.400]	1

tested on: Sinapis; test: Pre-emergence herbicidal action (Example B1); type: in vivo; design: key: 1=total damage; 9=no action; Ratings of from 1 to 4 (especially from 1 to 3) indicate good to very good herbicidal action; settings: 2000 g a.i./ha, sprayed immediately after sowing, evaluated after 3 weeks, scale of nine ratings
Experimental: as §1, §2

SMILES	Pre-emergence action: Sinapis (rating)
CCn1c(-c2nn(C)c(OC(F)F)c2Cl)c(F)cc(Cl)c1=O [Example 1.004]	1
C#CCn1c(-c2nn(C)c(C(F)(F)F)c2Cl)c(F)cc(Cl)c1=O [Example 9.100]	1
CSCn1c(-c2nn(C)c(OC(F)F)c2Cl)c(F)cc(Cl)c1=O [Example 1.147]	1
Cn1nc(-c2c(F)cc(Cl)c(=O)n2CCc2ccccc2)c(Cl)c1OC(F)F [Example 1.105]	1
CCSCCn1c(-c2nn(C)c(OC(F)F)c2Cl)c(F)cc(Cl)c1=O [Example 1.156]	1
COn1c(-c2nn(C)c(OC(F)F)c2Cl)c(F)cc(Cl)c1=O [Example 1.400]	1

tested on: Stellaria; test: Pre-emergence herbicidal action (Example B1); type: in vivo; design: key: 1=total damage; 9=no action; Ratings of from 1 to 4 (especially from 1 to 3) indicate good to very good herbicidal action; settings: 2000 g a.i./ha, sprayed immediately after sowing, evaluated after 3 weeks, scale of nine ratings
Experimental: as §1, §2

SMILES	Pre-emergence action: Stellaria (rating)
CCn1c(-c2nn(C)c(OC(F)F)c2Cl)c(F)cc(Cl)c1=O [Example 1.004]	1
C#CCn1c(-c2nn(C)c(C(F)(F)F)c2Cl)c(F)cc(Cl)c1=O [Example 9.100]	1
CSCn1c(-c2nn(C)c(OC(F)F)c2Cl)c(F)cc(Cl)c1=O [Example 1.147]	1
Cn1nc(-c2c(F)cc(Cl)c(=O)n2CCc2ccccc2)c(Cl)c1OC(F)F [Example 1.105]	1
CCSCCn1c(-c2nn(C)c(OC(F)F)c2Cl)c(F)cc(Cl)c1=O [Example 1.156]	1
COn1c(-c2nn(C)c(OC(F)F)c2Cl)c(F)cc(Cl)c1=O [Example 1.400]	1

tested on: Avena; test: Post-emergence herbicidal action (Example B2); type: in vivo; design: key: 1=total damage; 9=no action; Ratings of from 1 to 4 (especially from 1 to 3) indicate good to very good herbicidal action; settings: 2000 g a.i./ha, sprayed at 4- to 6-leaf stage, evaluated after approximately 18 days, scale of nine ratings
Experimental: (§3) Monocotyledonous and dicotyledonous test plants are grown in a greenhouse in plastics pots containing standard soil and at the 4- to 6-leaf stage are sprayed with an aqueous suspension or emulsion of the test substances of formula I, prepared from a 25% emulsifiable concentrate (Example F1, c) in WO 97/34485, pages 9 and 10), at a rate of application corresponding to 2000 g of active ingredient/ha (500 liters water/ha). The test plants are then grown on in the greenhouse under optimum conditions. After approximately 18 days' test duration, the test is evaluated in accordance with a scale of nine ratings (1=total damage, 9=no action). Ratings of from 1 to 4 (especially from 1 to 3) indicate good to very good herbicidal action.
as §2

SMILES	Post-emergence action: Avena (rating)
CCn1c(-c2nn(C)c(OC(F)F)c2Cl)c(F)cc(Cl)c1=O [Example 1.004]	1
C#CCn1c(-c2nn(C)c(C(F)(F)F)c2Cl)c(F)cc(Cl)c1=O [Example 9.100]	2
CSCn1c(-c2nn(C)c(OC(F)F)c2Cl)c(F)cc(Cl)c1=O [Example 1.147]	1
Cn1nc(-c2c(F)cc(Cl)c(=O)n2CCc2ccccc2)c(Cl)c1OC(F)F [Example 1.105]	1
CCSCCn1c(-c2nn(C)c(OC(F)F)c2Cl)c(F)cc(Cl)c1=O [Example 1.156]	1
COn1c(-c2nn(C)c(OC(F)F)c2Cl)c(F)cc(Cl)c1=O [Example 1.400]	1

tested on: Setaria; test: Post-emergence herbicidal action (Example B2); type: in vivo; design: key: 1=total damage; 9=no action; Ratings of from 1 to 4 (especially from 1 to 3) indicate good to very good herbicidal action; settings: 2000 g a.i./ha, sprayed at 4- to 6-leaf stage, evaluated after approximately 18 days, scale of nine ratings
Experimental: as §3, §2

SMILES	Post-emergence action: Setaria (rating)
CCn1c(-c2nn(C)c(OC(F)F)c2Cl)c(F)cc(Cl)c1=O [Example 1.004]	2
C#CCn1c(-c2nn(C)c(C(F)(F)F)c2Cl)c(F)cc(Cl)c1=O [Example 9.100]	2
CSCn1c(-c2nn(C)c(OC(F)F)c2Cl)c(F)cc(Cl)c1=O [Example 1.147]	1
Cn1nc(-c2c(F)cc(Cl)c(=O)n2CCc2ccccc2)c(Cl)c1OC(F)F [Example 1.105]	2
CCSCCn1c(-c2nn(C)c(OC(F)F)c2Cl)c(F)cc(Cl)c1=O [Example 1.156]	1
COn1c(-c2nn(C)c(OC(F)F)c2Cl)c(F)cc(Cl)c1=O [Example 1.400]	2

tested on: Sinapis; test: Post-emergence herbicidal action (Example B2); type: in vivo; design: key: 1=total damage; 9=no action; Ratings of from 1 to 4 (especially from 1 to 3) indicate good to very good herbicidal action; settings: 2000 g a.i./ha, sprayed at 4- to 6-leaf stage, evaluated after approximately 18 days, scale of nine ratings
Experimental: as §3, §2

SMILES	Post-emergence action: Sinapis (rating)
CCn1c(-c2nn(C)c(OC(F)F)c2Cl)c(F)cc(Cl)c1=O [Example 1.004]	1
C#CCn1c(-c2nn(C)c(C(F)(F)F)c2Cl)c(F)cc(Cl)c1=O [Example 9.100]	1
CSCn1c(-c2nn(C)c(OC(F)F)c2Cl)c(F)cc(Cl)c1=O [Example 1.147]	1
Cn1nc(-c2c(F)cc(Cl)c(=O)n2CCc2ccccc2)c(Cl)c1OC(F)F [Example 1.105]	1
CCSCCn1c(-c2nn(C)c(OC(F)F)c2Cl)c(F)cc(Cl)c1=O [Example 1.156]	1
COn1c(-c2nn(C)c(OC(F)F)c2Cl)c(F)cc(Cl)c1=O [Example 1.400]	1

tested on: Stellaria; test: Post-emergence herbicidal action (Example B2); type: in vivo; design: key: 1=total damage; 9=no action; Ratings of from 1 to 4 (especially from 1 to 3) indicate good to very good herbicidal action; settings: 2000 g a.i./ha, sprayed at 4- to 6-leaf stage, evaluated after approximately 18 days, scale of nine ratings
Experimental: as §3, §2

SMILES	Post-emergence action: Stellaria (rating)
CCn1c(-c2nn(C)c(OC(F)F)c2Cl)c(F)cc(Cl)c1=O [Example 1.004]	1
C#CCn1c(-c2nn(C)c(C(F)(F)F)c2Cl)c(F)cc(Cl)c1=O [Example 9.100]	1
CSCn1c(-c2nn(C)c(OC(F)F)c2Cl)c(F)cc(Cl)c1=O [Example 1.147]	1
Cn1nc(-c2c(F)cc(Cl)c(=O)n2CCc2ccccc2)c(Cl)c1OC(F)F [Example 1.105]	1
CCSCCn1c(-c2nn(C)c(OC(F)F)c2Cl)c(F)cc(Cl)c1=O [Example 1.156]	1
COn1c(-c2nn(C)c(OC(F)F)c2Cl)c(F)cc(Cl)c1=O [Example 1.400]	1
